In BindingDB's records for doi:10.1016/j.ejphar.2003.10.004 (Yamanouchi Pharmaceutical, 2004):
pKi: −log10 of the molar value.

Key:
[1] = molecular target: 5-hydroxytryptamine receptor 2A (Homo sapiens, UniProt P28223)
[2] = molecular target: 5-hydroxytryptamine receptor 2B (Homo sapiens, UniProt P41595)
[3] = molecular target: 5-hydroxytryptamine receptor 7 (Homo sapiens, UniProt P34969)
[4] = molecular target: T1, 5-hydroxytryptamine receptor 3A (Homo sapiens, UniProt P46098)
T1 sequence (P46098 whole entry): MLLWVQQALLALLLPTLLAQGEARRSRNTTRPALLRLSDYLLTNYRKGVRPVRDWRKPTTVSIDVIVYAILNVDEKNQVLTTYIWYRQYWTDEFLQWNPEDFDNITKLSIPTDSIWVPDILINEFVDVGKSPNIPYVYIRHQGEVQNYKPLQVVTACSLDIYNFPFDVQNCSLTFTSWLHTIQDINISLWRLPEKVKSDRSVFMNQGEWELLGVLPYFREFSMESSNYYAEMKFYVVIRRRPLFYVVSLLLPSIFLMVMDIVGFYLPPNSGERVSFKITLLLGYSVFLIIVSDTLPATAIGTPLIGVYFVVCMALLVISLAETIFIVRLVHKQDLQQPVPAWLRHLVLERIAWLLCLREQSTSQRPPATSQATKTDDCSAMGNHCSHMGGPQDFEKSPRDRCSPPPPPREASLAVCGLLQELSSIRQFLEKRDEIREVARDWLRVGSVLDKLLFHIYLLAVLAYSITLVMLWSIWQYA

[5] = molecular target: 5-hydroxytryptamine 1D receptor (Bos taurus, UniProt Q8MI13)
Sequence of 5-hydroxytryptamine 1D receptor (Q8MI13 whole entry): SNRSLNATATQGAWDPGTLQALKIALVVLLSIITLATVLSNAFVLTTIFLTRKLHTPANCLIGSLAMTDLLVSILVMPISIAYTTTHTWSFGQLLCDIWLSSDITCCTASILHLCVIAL

[6] = molecular target: 5-hydroxytryptamine receptor 5A (Homo sapiens, UniProt P47898)
Sequence of 5-hydroxytryptamine receptor 5A (P47898 whole entry): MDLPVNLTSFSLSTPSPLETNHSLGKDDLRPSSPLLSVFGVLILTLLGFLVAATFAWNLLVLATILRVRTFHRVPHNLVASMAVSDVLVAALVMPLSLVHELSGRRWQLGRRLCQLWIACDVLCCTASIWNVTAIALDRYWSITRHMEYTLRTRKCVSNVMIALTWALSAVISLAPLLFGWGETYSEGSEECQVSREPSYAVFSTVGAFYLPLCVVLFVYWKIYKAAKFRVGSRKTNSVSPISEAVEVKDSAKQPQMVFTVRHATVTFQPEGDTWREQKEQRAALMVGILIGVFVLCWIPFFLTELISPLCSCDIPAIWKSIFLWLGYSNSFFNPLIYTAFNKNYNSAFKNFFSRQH

[7] = molecular target: 5-hydroxytryptamine receptor 1B (Canis lupus familiaris, UniProt P79250)
Sequence of 5-hydroxytryptamine receptor 1B (P79250 whole entry): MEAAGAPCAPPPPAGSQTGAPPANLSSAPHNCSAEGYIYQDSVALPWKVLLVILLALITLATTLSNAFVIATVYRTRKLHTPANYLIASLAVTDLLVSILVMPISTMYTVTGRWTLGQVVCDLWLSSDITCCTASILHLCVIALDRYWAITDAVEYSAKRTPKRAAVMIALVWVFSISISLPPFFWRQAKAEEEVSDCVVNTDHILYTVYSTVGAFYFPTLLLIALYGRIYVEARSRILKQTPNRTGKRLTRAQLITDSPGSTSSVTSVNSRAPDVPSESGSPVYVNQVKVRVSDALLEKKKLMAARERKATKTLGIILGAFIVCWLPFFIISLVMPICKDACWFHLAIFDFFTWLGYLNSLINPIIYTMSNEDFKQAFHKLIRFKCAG

[8] = molecular target: T2, 5-hydroxytryptamine receptor 2C (Homo sapiens, UniProt P28335)
T2 sequence (P28335 whole entry): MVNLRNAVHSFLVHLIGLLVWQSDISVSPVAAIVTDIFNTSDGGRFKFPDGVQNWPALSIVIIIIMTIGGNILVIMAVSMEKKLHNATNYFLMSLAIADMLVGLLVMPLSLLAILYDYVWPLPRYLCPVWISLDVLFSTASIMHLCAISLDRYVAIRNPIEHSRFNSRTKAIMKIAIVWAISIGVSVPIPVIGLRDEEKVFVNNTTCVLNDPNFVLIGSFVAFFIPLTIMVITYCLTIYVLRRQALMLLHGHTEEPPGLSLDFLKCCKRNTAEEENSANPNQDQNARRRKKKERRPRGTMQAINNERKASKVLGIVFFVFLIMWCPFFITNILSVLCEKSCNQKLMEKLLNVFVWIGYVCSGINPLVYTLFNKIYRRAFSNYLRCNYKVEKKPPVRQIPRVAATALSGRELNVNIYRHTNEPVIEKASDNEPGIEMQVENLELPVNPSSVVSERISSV

[9] = molecular target: T3, Alpha-2A adrenergic receptor (Homo sapiens, UniProt P08913)
T3 sequence (P08913 whole entry): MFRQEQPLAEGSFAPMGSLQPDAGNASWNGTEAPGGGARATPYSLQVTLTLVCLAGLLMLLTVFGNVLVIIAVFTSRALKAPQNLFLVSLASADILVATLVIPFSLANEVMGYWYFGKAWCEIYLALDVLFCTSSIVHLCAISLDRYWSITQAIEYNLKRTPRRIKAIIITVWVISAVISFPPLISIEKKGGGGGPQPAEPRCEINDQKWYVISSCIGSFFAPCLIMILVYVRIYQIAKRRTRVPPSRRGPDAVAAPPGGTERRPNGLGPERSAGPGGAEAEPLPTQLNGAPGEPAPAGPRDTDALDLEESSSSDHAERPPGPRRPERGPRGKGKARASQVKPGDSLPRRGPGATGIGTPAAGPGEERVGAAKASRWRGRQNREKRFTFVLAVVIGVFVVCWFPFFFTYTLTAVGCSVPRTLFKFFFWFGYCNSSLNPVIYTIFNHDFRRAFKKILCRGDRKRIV

Sequence of 5-hydroxytryptamine receptor 2A (P28223 whole entry): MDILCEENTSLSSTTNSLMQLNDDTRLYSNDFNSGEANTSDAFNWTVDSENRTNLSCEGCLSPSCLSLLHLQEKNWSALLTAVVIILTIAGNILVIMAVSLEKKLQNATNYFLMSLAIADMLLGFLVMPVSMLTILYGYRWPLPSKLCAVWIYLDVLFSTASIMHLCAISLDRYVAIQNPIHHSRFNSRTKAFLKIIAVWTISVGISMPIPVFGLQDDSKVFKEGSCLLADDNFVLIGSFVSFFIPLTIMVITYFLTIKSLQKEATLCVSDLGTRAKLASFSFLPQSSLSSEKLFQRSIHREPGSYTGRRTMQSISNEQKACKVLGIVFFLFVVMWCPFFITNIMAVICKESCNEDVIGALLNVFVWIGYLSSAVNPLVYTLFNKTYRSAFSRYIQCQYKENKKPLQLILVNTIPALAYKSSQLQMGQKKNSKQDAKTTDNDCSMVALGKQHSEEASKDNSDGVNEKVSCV
Sequence of 5-hydroxytryptamine receptor 2B (P41595 whole entry): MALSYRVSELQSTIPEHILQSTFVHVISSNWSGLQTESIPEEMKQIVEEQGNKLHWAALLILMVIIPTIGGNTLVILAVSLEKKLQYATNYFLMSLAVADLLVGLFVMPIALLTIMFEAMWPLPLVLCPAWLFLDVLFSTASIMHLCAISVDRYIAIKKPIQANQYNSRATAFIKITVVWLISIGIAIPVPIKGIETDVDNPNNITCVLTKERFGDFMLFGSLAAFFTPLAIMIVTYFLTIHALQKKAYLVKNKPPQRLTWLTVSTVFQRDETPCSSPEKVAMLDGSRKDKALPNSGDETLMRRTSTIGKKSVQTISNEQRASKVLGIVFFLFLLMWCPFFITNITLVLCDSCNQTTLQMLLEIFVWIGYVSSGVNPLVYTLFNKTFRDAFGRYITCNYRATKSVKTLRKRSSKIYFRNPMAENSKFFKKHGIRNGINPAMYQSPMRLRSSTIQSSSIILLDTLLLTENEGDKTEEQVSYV
Sequence of 5-hydroxytryptamine receptor 7 (P34969 whole entry): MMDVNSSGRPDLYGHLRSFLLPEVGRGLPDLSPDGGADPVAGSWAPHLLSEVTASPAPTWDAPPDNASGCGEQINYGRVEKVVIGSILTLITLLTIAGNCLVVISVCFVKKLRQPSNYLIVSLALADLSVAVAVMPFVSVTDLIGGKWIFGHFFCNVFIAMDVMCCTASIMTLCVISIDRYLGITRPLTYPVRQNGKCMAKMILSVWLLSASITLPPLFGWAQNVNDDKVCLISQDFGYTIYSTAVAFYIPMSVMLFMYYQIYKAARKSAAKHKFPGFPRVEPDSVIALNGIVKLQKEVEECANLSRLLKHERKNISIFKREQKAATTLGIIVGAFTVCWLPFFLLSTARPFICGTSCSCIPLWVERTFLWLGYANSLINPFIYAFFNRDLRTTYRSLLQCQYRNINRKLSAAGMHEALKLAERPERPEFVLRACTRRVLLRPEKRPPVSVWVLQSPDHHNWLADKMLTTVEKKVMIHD

CCc1cc2c(ccc3cnn(CC(C)N)c32)o1 (configuration not stated) [CAS_3045225]
pKi [1]: 7.89 | pKi [2]: 8.60 | pKi [3]: 6.75 | pKi [4]: 6.00 | pKi [5]: 6.32 | pKi [6]: 6.00 | pKi [7]: 6.00 | pKi [8]: 9.05 | pKi [9]: 6.90

CC(N)Cn1ccc2cc(F)c(Cl)cc21 (configuration not stated) [NSC_3045226]
pKi [1]: 7.62 | pKi [2]: 8.62 | pKi [8]: 7.72
